Consider one compound from paper PMC9970282 (Nature chemical biology, 2022).

Assay in all cases: Competitive kinase engagement in mouse spleen with probe 3 as occupancy probe
Common to all, as to format: in vivo, mice

One experiment addresses CDK2 (Mus musculus, UniProt P97377). Particulars: 50 mg/kg oral.
In another experiment the target is CDK5 (Mus musculus, UniProt P49615). Particulars: 50 mg/kg oral, probe 3 10 mg/kg s.c., 1 h, p < 0.05.
In a further experiment the target is CDK17 (Mus musculus, UniProt Q8K0D0). Particulars: 50 mg/kg oral, probe 3 10 mg/kg s.c., 1 h, p < 0.05.
Chain of CDK17 (Q8K0D0 whole entry): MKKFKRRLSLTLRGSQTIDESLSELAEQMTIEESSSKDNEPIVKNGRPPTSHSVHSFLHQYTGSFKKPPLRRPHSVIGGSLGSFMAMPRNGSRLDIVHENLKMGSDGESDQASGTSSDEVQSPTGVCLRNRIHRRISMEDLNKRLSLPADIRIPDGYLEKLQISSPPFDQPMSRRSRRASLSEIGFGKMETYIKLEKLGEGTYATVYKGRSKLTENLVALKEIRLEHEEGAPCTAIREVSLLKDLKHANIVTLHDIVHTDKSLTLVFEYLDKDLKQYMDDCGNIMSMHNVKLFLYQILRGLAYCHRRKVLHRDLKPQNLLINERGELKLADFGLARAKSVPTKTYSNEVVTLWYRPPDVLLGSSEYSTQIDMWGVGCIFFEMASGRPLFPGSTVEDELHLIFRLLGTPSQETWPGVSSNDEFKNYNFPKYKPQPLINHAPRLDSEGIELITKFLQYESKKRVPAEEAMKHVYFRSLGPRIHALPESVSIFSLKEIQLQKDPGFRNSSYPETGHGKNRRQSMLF

Chain of CDK5 (P49615 whole entry): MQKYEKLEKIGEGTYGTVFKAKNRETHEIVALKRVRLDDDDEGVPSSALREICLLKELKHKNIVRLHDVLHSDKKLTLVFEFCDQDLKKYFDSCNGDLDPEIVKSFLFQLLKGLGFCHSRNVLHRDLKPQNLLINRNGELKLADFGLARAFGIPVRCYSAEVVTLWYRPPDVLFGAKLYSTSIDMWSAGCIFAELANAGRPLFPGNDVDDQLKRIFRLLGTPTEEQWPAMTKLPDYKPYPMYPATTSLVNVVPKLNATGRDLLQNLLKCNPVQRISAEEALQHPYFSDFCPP

On to `C[C@@]1(O)CCC[C@H]1n1c(=O)c(C(F)F)cc2cnc(NC3CCN(S(C)(=O)=O)CC3)nc21` [PF-06873600], for which, at CDK2 (mice, based on competition with probe 3), the “estimated occupancy of CDK2 in spleen tissue” value is reported as > 80%. Further, the “log2 FC of enrichment by probe 3, PF-06873600 vs. vehicle” value on CDK2 (mouse spleen, probe 3 10 mg/kg s.c., 1 h, p < 0.05) is reported as “< –2”; at CDK5, “~ –1”; on CDK17 it was “< –2”.
